In patent publication US12698463B2, “Spatially controlled fabrication of multi-spheroid tissues using magnetic bioprinting” (The Board of Trustees of the Leland Stanford Junior …, priority 2022, dated 2026):

How the values were obtained:
[1] = tested on: neural organoids; assay: Cleaved caspase-3 immunofluorescence in adjacent neural organoids of the assembloids; type: cell-based, human; settings: 200 nM panobinostat, neural organoids fused to DIPG organoids
Protocol: Organoids and assembloids were fixed in 4% PFA for 2 hours at 4° C. They were then washed three times with DPBS, for 15 min each, and transferred to a 30% sucrose solution in DPBS for 24-48 hours at 4° C. Once the organoids or assembloids sank in the sucrose solution, they were embedded in a 1:1 mixture of OCT (Fisher Scientific) and 30% sucrose in DPBS. They were then snap frozen on dry ice and stored at −80° C. A cryostat (Leica) was used to cut 50 μm sections for immunostaining.
Cryosections were washed with DPBS to remove excess OCT, then permeabilized with 0.25% Triton X-100 (Thermo Fisher) in DPBS (DPBS-T) for 1 hour and blocked with 5% goat serum (Gibco), 5% bovine serum albumin (BSA, Sigma), and 0.5% Triton X-100 in DPBS for 3 hours, all at RT. Samples were stained with primary antibodies for GFP, (1:200, Invitrogen a11122), cleaved caspase-3 (1:400, Cell Signaling 9661), and histone H3 mutated K27M (1:400, Abcam ab190631). Primary antibodies were diluted in 2.5% goat serum, 2.5% BSA, and 0.5% Triton X-100 in DPBS and incubated with the samples overnight at 4° C., Next, the samples were washed with DPBS-T (3×30 min, RT) and incubated with secondary antibody Alexa Fluor 488 (1:500, Invitrogen, A-11034) and 4′,6-diamidino-2-phenylindole (DAPI, 5 mg/mL stock, 1:2000, Invitrogen) in the same antibody dilution solution overnight at 4° C. […]

[2] = Cellulase-mediated CNF support scaffold degradation (rheology); settings: range of cellulase concentrations, 0.5 wt % CNF, over time
Protocol: For measurements of cellulase-mediated CNF support scaffold degradation, cellulase (Sigma) was dissolved in DMEM/F12 (Gibco) and added atop 0.5 wt % CNF in a 1:4 ratio by volume to approximate the ratio of media to CNF support within the bioprinting chip. All samples were incubated in a humidified 37° C. incubator for three days. Depending on the downstream measurement, cellulase solutions, as well as non-cellulase containing DMEM/F12 controls, were either changed every day or allowed to incubate over the full three days without a media change.
Viscosity and storage moduli were obtained with an AR-G2 (TA Instruments) stress-controlled rheometer (20 mm 1° cone and plate geometry with a 28 μm gap). To observe the effect of cellulase on the viscosity of CNF over 72 hours, samples were loaded onto the stage at 37° C. for a 5 min time sweep with 1% oscillatory strain and 1 rad/s angular frequency. This was followed by a frequency sweep from 0.1 to 100 Hz at 1% strain. To measure the storage modulus, samples were loaded onto the stage at 2 hours, 4 hours, 6 hours, 24 hours, 48 hours, and 72 hours and subjected to a frequency sweep at 1 rad/s angular frequency.

[3] = tested on: neural organoids; assay: Neural organoid viability (calcein AM / ethidium homodimer) after cellulase; type: cell-based, human; settings: 0.5 wt % cellulase treatment over time
Protocol: To characterize viability, organoids were submerged in a solution consisting of DPBS supplemented with 2 μM calcein AM and 4 µM ethidium homodimer for 20 min at 37° C. The samples were washed with DPBS and imaged with an epifluorescent microscope (Leica Microsystems, THUNDER Imager 3D Cell Culture) and confocal microscope (Leica SPE).

[4] = Cellulase-mediated removal of residual CNF on extracted neural organoids; settings: 0.5 wt % cellulase, over 72 hours
Protocol: To characterize cellulase-mediated CNF degradation after neural organoid release from the support scaffold, neural organoids were first cultured in 0.5 wt % CNF support bath for 1 day and released through diluting the support bath with DPBS. A 0.5 wt % cellulase (Sigma) solution, made up in neural medium, was filtered through a 0.22 μm filter, warmed to 37° C., and added to the organoids with daily medium changes. Organoids were imaged every day with an epifluorescent microscope (Leica Microsystems, THUNDER Imager 3D Cell Culture). The area of residual CNF on the organoid surface was manually measured with ImageJ (NIH, v.2.3.0/1.53q).

Molecule | cleaved caspase-3 expression (apoptosis) in adjacent neural organoids [1] | cleaved caspase-3 expression (apoptosis) in adjacent neural organoids ([1]; listed as Panobinostat) | viscosity and storage modulus of CNF support after cellulase [2] | organoid viability [3] | residual CNF removed from organoid surface [4]
Cc1[nH]c2ccccc2c1CCNCc1ccc(/C=C/C(=O)NO)cc1 [panobinostat] | did not exhibit substantially increased cleaved caspase-3 expression | does not induce substantial apoptosis |  |  | 
cellulase |  |  | stepwise decreases in both viscosity and storage modulus | does not affect organoid viability | over 98%
